Experimental data: ChEMBL document CHEMBL6103619, “Discovery of a Novel CRBN-Recruiting cGAS PROTAC Degrader for the Treatment of Ulcerative Colitis” (J Med Chem, 2025)
Active and inactive are the calls of the source. The rule behind the calls is not given here.

How the values were obtained:
[1] = (§1) Inhibition of dsDNA-induced cGAS signaling pathway in mouse RAW-Lucia ISG cells preincubated with compound for 24 hrs followed by HT-DNA addition and measured after 24 hrs by QUANTI-Luc luciferase reagent based assay; format: cell-based
RAW-Lucia ISG = experiment: as §1; format: cell-based; settings: time 48.0 hrs
[2] = target: Protein cereblon/Cyclic GMP-AMP synthase (Homo sapiens, UniProt Q96SW2+Q8N884); experiment: PROTAC activity at CRBN/cGAS in human THP-1 cells assessed as induction of cGAS degradation at 10 uM preincubated with lenalidomide for 2 hrs followed by compound addition and measured after 48 hrs by Western blot analysis; format: cell-based
THP-1 [3] = experiment: Inhibition of cGAMP production in human THP-1 cells at 5 to 20 uM preincubated with compound for 36 hrs followed by HT-DNA addition and measured after 6 hrs by LC-MS analysis; format: functional, cell-based; settings: dose 5-20 µM, time 42.0 hrs
[4] = target: Cyclic GMP-AMP synthase (Homo sapiens) (UniProt Q8N884); experiment: Inhibition of cGAMP-induced cGAS signaling pathway in human THP1-Lucia ISG cells at 0.2 to 20 uM preincubated with compound for 2 hrs followed by cGAMP addition and measured after 24 hrs by QUANTI-Luc luciferase reagent based assay; format: cell-based; settings: dose 0.2-20 µM, time 26.0 hrs
THP-1 [5] = experiment: Inhibition of ds-DNA induced cGAS-STING signaling pathway in human THP-1 cells assessed as reduction in TBK1 phosphorylation preincubated with compound for 40 hrs followed by HT-DNA addition and measured after 8 hrs by Western blot analysis; format: cell-based; settings: dose 0.7-20 µM, time 48.0 hrs
RAW264.7 [6] = experiment: Inhibition of ds-DNA induced cGAS-STING signaling pathway in mouse RAW264.7 cells assessed as reduction in STING phosphorylation preincubated with compound for 40 hrs followed by HT-DNA addition and measured after 8 hrs by Western blot analysis; format: cell-based; settings: dose 0.7-20 µM, time 48.0 hrs
RAW264.7 [7] = experiment: Inhibition of ds-DNA induced cGAS-STING signaling pathway in mouse RAW264.7 cells assessed as reduction in IRF3 phosphorylation preincubated with compound for 40 hrs followed by HT-DNA addition and measured after 8 hrs by Western blot analysis; format: cell-based; settings: dose 0.7-20 µM, time 48.0 hrs
THP-1 [8] = experiment: Downregulation of IFNB mRNA expression in human THP-1 cells preincubated with compound for 40 hrs followed by HT-DNA addition and measured after 8 hrs by qRT-PCR analysis; format: functional, cell-based; settings: dose 1.25-10 µM, time 48.0 hrs
RAW264.7 [9] = experiment: Upregulation of IFNB mRNA expression level in mouse Trex1-/- RAW264.7 cells at 5 to 20 uM incubated for 24 hrs by qRT-PCR analysis; format: functional, cell-based; settings: dose 5-20 µM
THP-1 [10] = experiment: Downregulation of IFNB mRNA expression level in HT-DNA-induced human THP-1 cells at 20 uM preincubated with compound for 12 hrs followed by HT-DNA addition and measured after 8 hrs by RT-qPCR analysis; format: functional, cell-based; settings: time 20.0 hrs
THP-1 [11] = experiment: Downregulation of IFNB mRNA expression level in poly(I:C)-induced human THP-1 cells at 20 uM preincubated with compound for 12 hrs followed by poly(I:C) addition and measured after 8 hrs by RT-qPCR analysis; format: functional, cell-based; settings: time 20.0 hrs
THP-1 [12] = experiment: Cytotoxicity against human THP-1 cells assessed as reduction in cell viability upto 60 uM incubated for 48 hrs by CCK8 assay; format: toxicity, cell-based; settings: thp-1, 48 h
RAW264.7 [13] = experiment: Cytotoxicity against mouse RAW264.7 cells assessed as reduction in cell viability upto 60 uM incubated for 48 hrs by CCK8 assay; format: toxicity, cell-based; settings: raw264.7, 48 h
[14] = Cytotoxicity against mouse RAW-Lucia ISG cells assessed as reduction in cell viability upto 60 uM incubated for 48 hrs by CCK8 assay; format: toxicity, cell-based
RAW264.7 [15] = experiment: Cytotoxicity against mouse RAW264.7 cells assessed as reduction in cell viability at >30 uM incubated for 48 hrs by CCK8 assay; format: toxicity, cell-based; settings: raw264.7, 48 h
[16] = Cmax in male C57BL/6 mouse at 1 mg/kg, iv measured after 24 hrs by LC-MS/MS analysis; format: ADME, organism-based; settings: in vivo
[17] = AUC (0 to 24 hrs) in male C57BL/6 mouse at 1 mg/kg, iv measured after 24 hrs by LC-MS/MS analysis; format: ADME, organism-based; settings: in vivo
[18] = AUC (0 to infinity) in male C57BL/6 mouse at 1 mg/kg, iv measured after 24 hrs by LC-MS/MS analysis; format: ADME, organism-based; settings: in vivo
[19] = Volume of distribution in male C57BL/6 mouse at 1 mg/kg, iv measured after 24 hrs by LC-MS/MS analysis; format: ADME, organism-based; settings: in vivo
[20] = MRT (0 to 24 hrs) in male C57BL/6 mouse at 1 mg/kg, iv measured after 24 hrs by LC-MS/MS analysis; format: ADME, organism-based; settings: in vivo
[21] = Half-life in male C57BL/6 mouse at 20 mg/kg, ip measured after 24 hrs by LC-MS/MS analysis; format: ADME, organism-based; settings: in vivo
Mus musculus [22] = experiment: Anti-inflammatory activity in DSS-induced ulcerative colitis C57BL/6 mouse model assessed as increase in colon length at 20 to 50 mg/kg/day, ip preadministered with DSS for 7 days followed by replacement with ultrapure water for 3 days with subsequent compound administration starting from day 4 to 10 and measured on day 11; format: functional, organism-based; settings: dose 20-50 mg/kg/day, time 8.0 day
[23] = target: Protein cereblon/Cyclic GMP-AMP synthase (Mus musculus) (UniProt Q8C6L5+Q8C7D2); experiment: In vivo inhibition of cGAS signaling pathway in DSS-induced ulcerative colitis C57BL/6 mouse model assessed as reduction in TBK1 phosphorylation level in colon preadministered with DSS for 7 days followed by replacement with ultrapure water for 3 days with subsequent intraperitoneal compound administration starting from day 4 to 10 and measured on day 11 by Western blot analysis; format: functional, organism-based; settings: dose 20-50 mg/kg/day, route ip, time 8.0 day
Mus musculus [24] = experiment: Anti-inflammatory activity in DSS-induced ulcerative colitis C57BL/6 mouse model assessed as reduction in IFNB mRNA level in colon at 20 to 50 mg/kg/day, ip preadministered with DSS for 7 days followed by replacement with ultrapure water for 3 days with subsequent compound administration starting from day 4 to 10 and measured on day 11 by qRT-PCR analysis; format: functional, organism-based; settings: dose 20-50 mg/kg/day, time 8.0 day
Mus musculus [25] = experiment: Anti-inflammatory activity in DSS-induced ulcerative colitis C57BL/6 mouse model assessed as reduction in TNF-alpha mRNA level in colon at 20 to 50 mg/kg/day, ip preadministered with DSS for 7 days followed by replacement with ultrapure water for 3 days with subsequent compound administration starting from day 4 to 10 and measured on day 11 by qRT-PCR analysis; format: functional, organism-based; settings: dose 20-50 mg/kg/day, time 8.0 day
Mus musculus [26] = experiment: Anti-inflammatory activity in DSS-induced ulcerative colitis C57BL/6 mouse model assessed as reduction in IL-6 secretion in colon at 20 to 50 mg/kg/day, ip preadministered with DSS for 7 days followed by replacement with ultrapure water for 3 days with subsequent compound administration starting from day 4 to 10 and measured on day 11 by ELISA; format: functional, organism-based; settings: dose 20-50 mg/kg/day, time 8.0 day
Mus musculus [27] = experiment: Anti-inflammatory activity in DSS-induced ulcerative colitis C57BL/6 mouse model assessed as reduction in mucosal NET formation by measuring reduction in citH3 level in colon at 20 to 50 mg/kg/day, ip preadministered with DSS for 7 days followed by replacement with ultrapure water for 3 days with subsequent compound administration starting from day 4 to 10 and measured on day 11 by immunofluorescence imaging analysis; format: functional, organism-based; settings: dose 20-50 mg/kg/day, time 8.0 day

Sequence of Cyclic GMP-AMP synthase (Homo sapiens) (Q8N884 whole entry): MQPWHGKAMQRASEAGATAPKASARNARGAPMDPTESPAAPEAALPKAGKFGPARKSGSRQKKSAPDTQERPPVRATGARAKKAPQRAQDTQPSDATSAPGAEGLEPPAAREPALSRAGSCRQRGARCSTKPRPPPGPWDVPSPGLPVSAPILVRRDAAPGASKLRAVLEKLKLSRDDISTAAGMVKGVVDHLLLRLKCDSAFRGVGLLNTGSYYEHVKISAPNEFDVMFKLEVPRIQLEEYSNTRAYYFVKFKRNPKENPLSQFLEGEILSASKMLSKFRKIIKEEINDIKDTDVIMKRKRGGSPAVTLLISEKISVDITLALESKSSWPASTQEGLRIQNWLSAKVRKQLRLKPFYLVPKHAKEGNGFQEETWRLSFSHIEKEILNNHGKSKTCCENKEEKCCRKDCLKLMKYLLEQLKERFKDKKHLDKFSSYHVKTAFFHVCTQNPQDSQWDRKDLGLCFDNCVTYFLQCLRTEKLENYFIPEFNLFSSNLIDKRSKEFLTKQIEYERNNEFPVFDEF
Sequence of Protein cereblon/Cyclic GMP-AMP synthase (Q8N884 whole entry, looked up): as the sequence (Q8N884 whole entry) above
Sequence of Protein cereblon/Cyclic GMP-AMP synthase (Q96SW2 whole entry, looked up): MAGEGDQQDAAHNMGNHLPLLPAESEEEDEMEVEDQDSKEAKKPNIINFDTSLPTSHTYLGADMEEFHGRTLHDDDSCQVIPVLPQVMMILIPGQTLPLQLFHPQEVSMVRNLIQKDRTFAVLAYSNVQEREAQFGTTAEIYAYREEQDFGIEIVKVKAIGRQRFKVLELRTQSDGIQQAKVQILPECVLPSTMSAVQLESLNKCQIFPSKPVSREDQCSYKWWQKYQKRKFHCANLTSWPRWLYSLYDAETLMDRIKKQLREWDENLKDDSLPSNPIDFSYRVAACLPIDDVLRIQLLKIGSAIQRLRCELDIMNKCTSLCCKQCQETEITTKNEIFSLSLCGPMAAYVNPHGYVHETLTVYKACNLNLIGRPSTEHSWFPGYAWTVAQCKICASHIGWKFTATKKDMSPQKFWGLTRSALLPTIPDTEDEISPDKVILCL
Sequence of Protein cereblon/Cyclic GMP-AMP synthase (Mus musculus) (Q8C6L5 whole entry, looked up): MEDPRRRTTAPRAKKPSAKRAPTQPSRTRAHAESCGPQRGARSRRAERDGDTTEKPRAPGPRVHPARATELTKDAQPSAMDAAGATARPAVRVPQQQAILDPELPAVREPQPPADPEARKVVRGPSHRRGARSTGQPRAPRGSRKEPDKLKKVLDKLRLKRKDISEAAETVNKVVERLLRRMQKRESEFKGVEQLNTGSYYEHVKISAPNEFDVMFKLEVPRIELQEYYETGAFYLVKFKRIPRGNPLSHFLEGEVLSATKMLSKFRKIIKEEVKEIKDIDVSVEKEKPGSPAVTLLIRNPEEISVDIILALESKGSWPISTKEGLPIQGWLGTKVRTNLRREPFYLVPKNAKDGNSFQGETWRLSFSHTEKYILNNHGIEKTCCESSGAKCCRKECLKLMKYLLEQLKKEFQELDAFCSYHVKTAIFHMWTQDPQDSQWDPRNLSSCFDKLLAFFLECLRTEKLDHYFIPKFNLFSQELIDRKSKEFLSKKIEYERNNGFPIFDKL
Sequence of Protein cereblon/Cyclic GMP-AMP synthase (Mus musculus) (Q8C7D2 whole entry, looked up): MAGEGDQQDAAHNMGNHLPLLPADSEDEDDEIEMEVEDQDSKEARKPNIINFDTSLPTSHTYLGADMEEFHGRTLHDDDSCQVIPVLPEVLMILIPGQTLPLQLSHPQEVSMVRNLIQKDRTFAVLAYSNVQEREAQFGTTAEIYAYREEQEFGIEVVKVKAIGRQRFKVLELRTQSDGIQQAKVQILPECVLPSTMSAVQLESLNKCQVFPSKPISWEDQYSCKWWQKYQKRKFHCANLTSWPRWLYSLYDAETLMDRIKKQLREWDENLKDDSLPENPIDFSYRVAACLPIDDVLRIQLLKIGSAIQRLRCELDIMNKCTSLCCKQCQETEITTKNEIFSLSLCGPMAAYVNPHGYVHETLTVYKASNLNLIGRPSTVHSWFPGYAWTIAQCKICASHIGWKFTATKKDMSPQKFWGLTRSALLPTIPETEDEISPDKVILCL

Cn1ccc(-c2cc(Cl)c(Cl)c3[nH]c4c(c23)CN(C(=O)CNC(=O)CCCC#Cc2cccc3c2CN(C2CCC(=O)NC2=O)C3=O)CC4)n1 (stereo not drawn)
IC50 [1]: 4.8 µM | inhibition (RAW-Lucia ISG): Dose-dependent-effect | Activity [2]: inactive | inhibition (THP-1 [3]): Active | inhibition [4]: inactive | inhibition (THP-1 [5]): Dose-dependent-effect | inhibition (RAW264.7 [6]): Dose-dependent-effect | inhibition (RAW264.7 [7]): Dose-dependent-effect | Activity (THP-1 [8]): Dose-dependent-effect | Activity (RAW264.7 [9]): Active | Activity (THP-1 [10]): Active | Activity (THP-1 [11]): inactive | Activity (THP-1 [12]): Non-toxic | Activity (RAW264.7 [13]): Non-toxic | Activity [14]: Non-toxic | Activity (RAW264.7 [15]): Toxic | Cmax [16]: 1610 ng/mL | AUC(0-t) at 24 h [17]: 530 ng·h/mL | AUC(0-inf) [18]: 531 ng·h/mL | Vd [19]: 8.1 L/kg | MRT last at 24 h [20]: 0.9 h | half-life [21]: 13.7 h | Activity (Mus musculus [22]): Active | inhibition [23]: Dose-dependent-effect | Activity (Mus musculus [24]): Active | Activity (Mus musculus [25]): Active | Activity (Mus musculus [26]): Active | Activity (Mus musculus [27]): Active
